Tests used:
TMD8 = test: CellTiter-Glo cell viability assay; format: cell-based; conditions: Homo sapiens, 72 hours
Description: (§1) CellTiter-Glo® Luminescent cell viability assay (Promega) was used to assess cell survival following treatment with the compounds described. Cells were seeded into 384 well plates with the EL406 Combination Washer Dispenser (BioTek Instruments, Inc.) and the compounds were injected into the cells culture media with the JANUS Automated Workstation (PerkinElmer Inc.). Cells were treated with a series diluted inhibitors (20˜0.04 μM) for 72 hours at 37° C. Luminescent measurement is performed using the 2104 Envision® Multilabel Reader (PerkinElmer Inc.).

BCWM.1 = test: CellTiter-Glo cell viability assay; format: cell-based
Description: as §1

OCI-Ly3 = test: CellTiter-Glo cell viability assay; format: cell-based; conditions: Homo sapiens, OCI-Ly3, 72 h
Description: as §1

OCI-Ly7 = test: CellTiter-Glo cell viability assay; format: cell-based; conditions: Homo sapiens, 72 hours
Description: as §1

BTK-pY223 = test: PhosFlow; format: cell-based; conditions: BCWM.1, Hck-wt and Hck-mu BCWM.1 cells; 0.5 μM and 0.1 μM
Description: PhosFlow was performed to detect levels of phosphorylation for BTK-pY223 (BD Biosciences) and Hck-pY410 (Abcam) in BCWM.1 cells, in BCWM cells that stably overexpress HCK (BCWM.1_HCK-wt) and in BCWM.1 cells that stably overexpress the T338M mutant of HCK (BCWM.1_HCK-mu). Cells were fixed with BD Phosflow Fix Buffer I (BD Biosciences) at 37° C. for 10 min, then washed twice with BD Phosflow Perm/Wash Buffer I (BD Biosciences). Cells were suspended in BD Phosflow Perm/Wash Buffer I at 10 million/ml and antibodies aliquoted to flow tubes with 100 μl cells. Cells were incubated at room temperature for 30 min in the dark. Cells were washed twice with BD Phosflow Perm/Wash Buffer I before performing flow analysis using a BD™ FACSCanto II flow cytometer.

[1] = test system: WM patient primary lymphoplasmacytic cells (LPCs); test: Apoptosis analysis (Annexin V/Propidium iodide); format: cell-based; conditions: for Apoptosis (%): 24 hours
Description: WM cells were treated with and without the compounds described herein. Cells were incubated at 37° C. with 0.01˜4 uM of the compounds described herein. Apoptosis analysis was performed using Annexin V/Propidium iodide staining with the Apoptosis Detection Kit I (BD Pharmingen). 1×10^6/well cells were treated in 24 well plates for ˜24 hours with inhibitors or corresponding controls. A minimum of 10,000 events were acquired using a BD™ FACSCanto II flow cytometer and analyzed with BD FACS DIVA Software.
Apoptosis analysis of WM patient primary lymphoplasmacytic cells (LPCs) was preformed following A-5 and A-14 treatment of Bone marrow mononuclear cells (BMMC) from WM patients for 24 hours. Apoptosis analysis was performed using Annexin V/Propidium iodide staining with the Apoptosis Detection Kit I (BD Pharmingen) in CD19-APC-cy7 antibody (BD Pharmingen) gated LPCs population.

ZAK = format: cell-based
FYN = test: KiNativ kinase profiling in A375 cells; format: cell-based; conditions: 1 μM; A375 cells
BTK = format: biochemical
Description: (§2) The in vitro activity of the compounds described herein in inhibiting TAK1, HCK and other kinases were obtained using an Invitrogen Select Screening assay as known in the art. The IC50 values determined from this assay are shown below.

LYN = format: cell-based
Abl = test: KiNativ kinase profiling in A375 cells; format: cell-based; conditions: 1 μM; A375 cells
Hck-pY410 = test: PhosFlow; format: cell-based; conditions: BCWM.1, Hck-wt and Hck-mu BCWM.1 cells; 0.5 μM and 0.1 μM
TAK1 = format: biochemical
HCK = format: biochemical; conditions: read-out: HCK IC50 (nM) Inv
Description: as §2

Ramos = test: CellTiter-Glo cell viability assay; format: cell-based; conditions: Homo sapiens, 72 h
Description: as §1

OCI-Ly19 = test: CellTiter-Glo cell viability assay; format: cell-based; conditions: Homo sapiens, OCI-LY19, 72 h
Description: as §1

MWCL-1 = test: CellTiter-Glo cell viability assay; format: cell-based; conditions: 72 h
Description: as §1

[2] = Isobolograms, synergy with a BTK inhibitor; conditions: FIG. 1
Description: Points below the 1 to 1 line connecting the X and Y axes are ‘synergistic’, points near the line are ‘additive’, and points above it are antagonistic.

Q: Which results are given for `CCN1CCN(Cc2ccc(NC(=O)c3ccc(C)c(Oc4cc(Nc5cnn(C)c5)ncn4)c3)cc2C(F)(F)F)CC1` [(A-5), N-(4-((4-ethylpiperazin-1-yl)methyl)-3-(trifluoromethyl)phenyl)-4-methyl-3-((6-((1-methyl-1H-pyrazol-4-yl)amino)pyrimidin-4-yl)oxy)benzamide]?
A: EC50 (TMD8): 132 nM; EC50 (BCWM.1; 72 hours): 72 nM; EC50 (BCWM.1; BCWM1, 72 h): 51 nM; EC50 (OCI-Ly3): 4710 nM; EC50 (OCI-Ly7): 655 nM; BTK phosphorylation (BTK-pY223): inhibit; Apoptosis (%) ([1]; Patient 1, 1.0 μM): 57.7%; Apoptosis (%) ([1]; Patient 2, 1.0 μM): 28.9%; Apoptosis (%) ([1]; Patient 3, 1.0 μM): 29.48%; Apoptosis (%) ([1]; Patient 4, 1.0 μM): 48.56%; Apoptosis (%) ([1]; Patient 5, 0.5 μM): 23.25%; Apoptosis (%) ([1]; Patient 5, 1.0 μM): 30.5%; Apoptosis (%) ([1]; Patient 6, 1.0 μM): 17.82%; Apoptosis (%) ([1]; Patient 7, 0.5 μM): 17.23%; Apoptosis (%) ([1]; Patient 7, 1.0 μM): 18.2%; Apoptosis (%) ([1]; Patient 8, 0.5 μM): 11.04%; Apoptosis (%) ([1]; Patient 8, 1.0 μM): 17.31%; Apoptosis (%) ([1]; Patient 10, 0.2 μM): 21.5%; Apoptosis (%) ([1]; Patient 10, 1.0 μM): 28.7%; Apoptosis (%) ([1]; Patient 11, 0.2 μM): 30.2%; Apoptosis (%) ([1]; Patient 11, 1.0 μM): 47%; apoptosis compared with DMSO control ([1]; WM patient primary LPCs): induced significant apoptosis; ZAK inhibition (ZAK): 75.7%; FYN inhibition (FYN): 71.2%; IC50 (BTK): > 10000 nM; LYN inhibition (LYN): 87.8%; Abl inhibition (Abl): > 90%; Hck phosphorylation (Hck-pY410): inhibit

Q: Which results are given for `CCN1CCN(Cc2ccc(NC(=O)c3ccc(C)c(Oc4cc(Nc5cncnc5)ncn4)c3)cc2C(F)(F)F)CC1` [(A-8), N-(4-((4-ethylpiperazin-1-yl)methyl)-3-(trifluoromethyl)phenyl)-4-methyl-3-((6-(pyrimidin-5-ylamino)pyrimidin-4-yl)oxy)benzamide]?
A: IC50 (TAK1): 487 nM; IC50 (HCK): 889 nM

Q: For `C=CC(=O)Nc1cc(Oc2cc(C(=O)Nc3ccc(CN4CCN(CC)CC4)c(C(F)(F)F)c3)ccc2C)ncn1` [(A-17), 3-((6-acrylamidopyrimidin-4-yl)oxy)-N-(4-((4-ethylpiperazin-1-yl)methyl)-3-(trifluoromethyl)phenyl)-4-methylbenzamide], which EC50 (Ramos) is on record?
A: 389 nM

Q: What about the EC50 (OCI-Ly19) of the same molecule?
A: 188 nM

Q: And the EC50 (BCWM.1; BCWM1, 72 h)?
A: 8 nM

Q: And the EC50 (OCI-Ly3)?
A: 247 nM

Q: And the EC50 (MWCL-1)?
A: 202 nM

Q: What about the IC50 (BTK) of the same molecule?
A: 3380 nM

Q: And the “synergy between compound and a BTK inhibitor (isobolograms)” value [2]?
A: synergy
